Reference: patent publication US12565467B2, “Compounds, compositions, and methods for the treatment of inflammatory, degenerative, and neurodegenerative diseases” (Board of Supervisors of Louisiana State University and …, priority 2015, dated 2026)

Tests used:
[1] = test system: human retinal pigment epithelial (RPE) cells deficient in 15-LOX-D1; assay: Oxidative stress (OS) induced apoptosis / cell death in 15-LOX-1-deficient human RPE cells; format: cell-based
From the text: (§1) FIG. 4. (A) Cytoprotective effects of NPD1 like compounds on OS induced apoptosis. The results shown in this figure compare the cytoprotective capacities of long chain polyunsaturated fatty acids (VLC-PUFA), elovanoids ELV1 and ELV2, and neuroprotectin D1 (NPD1) in human retinal pigment epithelial (RPE) cells deficient in 15-LOX-D1 by measuring the protection of cell deaths induced by oxidative stress (OS) by these compounds. […] (B) Elovanoid precursors protect human retinal pigment epithelial cells deficient in 15-LOX-1, unlike DHA, from oxidative stress conditions.
(§2) FIG. 5. (A) Effect of PD146176 on VLC-PUFA-inhibited apoptosis induced by OS in ARPE-19 cells. […] It is evident that 32:6 and 34:6 LCAF were able to induce a substantial amount (55 and 48% respectively) of neuroprotection compared to PD 146176 (22%) when the stressed cells were treated with 5 μm of 15-LOX-D1 inhibitor. It can be concluded that since PD146176 is the inhibitor of 15-lipooxygenase enzyme, it might be protecting the stressed RPE cells by accumulating neuroprotective agents inside the cells. (B) Comparison of cytoprotective capacities of NPD1, C32:6 and C34:6 VLC-PUFA on oxidative stress-induced apoptosis in 15-LOX-1 cells. Shown here is the comparison of neuroprotection in a 15-LOX-1-deficient cell line under oxidative stress with 32:6 and 34:6 VLC-PUFA along with NPD1. 32:6 and 34:6 LCAF were able to induce neuroprotection (45% and 40% respectively), as compared to oxidative stress (90%) under this condition. (C) Concentration dependent cytoprotection by C32:6 and C34:6 VLC-PUFA in oxidative-stress induced ARPE-19 cells. A concentration (50-500 nM) kinetic of cytoprotection induced by LCAF 32:6 and 34:6 in RPE cell culture under OS was shown here. […] We decided to use 250 nM concentrations of 32:6 and 34:6 LCAF in subsequent experiments. (D) Selected images of alive and dead cells from this study (control, OS, treatment with C32:6).
as §1, with “Evidence of cytoprotection by 32.6 and 34.6 VLC-PUFA in oxidative-stress induced ARPE-19 cells as detailed in (FIG. 4): (A) Cytoprotective” for “FIG. 4. (A) Cytoprotective”, “capacities of very long chain” for “capacities of long chain”
FIG. 5—(A) Effect of PD146176 on VLC-PUFA inhibited apoptosis induced by OS in ARPE-19 cells. […] It is evident that 32:6 and 34:6 LCAF were able to induce a substantial amount (55 and 48% respectively) of neuroprotection compared to PD 146176 (22%) when the stressed cells were treated with 5 μm of 15-LOX-D1 inhibitor. It can be concluded that since PD146176 is the inhibitor of 15-lipooxygenase enzyme, it might be protecting the stressed RPE cells by accumulating neuroprotective agents inside the cells. (B) Comparison of cytoprotective capacities of NPD1, C32:6 and C34:6 VLC-PUFA on oxidative stress-induced apoptosis in 15-LOX-1 cells. Shown here is the comparison of neuroprotection in a 15-LOX-1-deficient cell line under oxidative stress with 32:6 and 34:6 VLC-PUFA along with NPD1. 32:6 and 34:6 VLC-PUFA were able to induce neuroprotection (45% and 40% respectively), as compared to oxidative stress (90%) under this condition. (C) Concentration dependent cytoprotection by C32:6 and C34:6 VLC-PUFA in oxidative-stress induced ARPE-19 cells. A concentration (50-500 nM) kinetic of cytoprotection induced by VLC-PUFA 32:6 and 34:6 in RPE cell culture under OS was shown here. […] We decided to use 250 nM concentrations of 32:6 and 34:6 VLC-PUFA in subsequent experiments. […]

SIRT1 = SIRT1 abundance in ARPE-19 cells under oxidative stress; format: cell-based; conditions: ARPE-19 / human RPE cells confronted with OS
From the text: FIG. 10. (A) Effect of NPD1 and VLC-PUFA C32:6 and C34:6 in mediating upregulation of SIRT1 in ARPE-19 cells. (B) Quantification of SIRT1 upregulation by NPD1, C32:6 and C34:6. SIRT1 (Sirtuin1) belongs to a family of highly conserved proteins linked to caloric restriction beneficial outcomes and aging by regulating energy metabolism, genomic stability and stress resistance. SIRT1 is a potential therapeutic target in several diseases including cancer, diabetes, inflammatory disorders, and neurodegenerative diseases or disorders. Elovanoids induce cell survival involving the upregulation of the Bcl2 class of survival proteins and the downregulation of pro-apoptotic Bad and Bax under oxidative stress (OS) in RPE cells. […] As a consequence, remarkable cell survival takes place. This target of elovanoids might be relevant to counteract consequences of several diseases associated with SIRT1.
FIG. 10—(A) Effect of NPD1 and VLC-PUFA C32:6 and C34:6 in mediating upregulation of SIRT1 in ARPE-19 cells. (B) Quantification of SIRT1 upregulation by NPD1, C32:6 and C34:6. SIRT1 (Sirtuin1) belongs to a family of highly conserved proteins linked to caloric restriction beneficial outcomes and aging by regulating energy metabolism, genomic stability and stress resistance. […]

ARPE-19 cells = assay: Oxidative stress induced apoptosis / cell death in ARPE-19 cells; format: cell-based, human; conditions: for concentration dependent cytoprotection (FIG. 5C): ARPE-19 under OS
Protocol: as §2
FIG. 5—(A) Effect of PD146176 on VLC-PUFA inhibited apoptosis induced by OS in ARPE-19 cells. […] It is evident that 32:6 and 34:6 LCAF were able to induce a substantial amount (55 and 48% respectively) of neuroprotection compared to PD 146176 (22%) when the stressed cells were treated with 5 μm of 15-LOX-D1 inhibitor. It can be concluded that since PD146176 is the inhibitor of 15-lipooxygenase enzyme, it might be protecting the stressed RPE cells by accumulating neuroprotective agents inside the cells. (B) Comparison of cytoprotective capacities of NPD1, C32:6 and C34:6 VLC-PUFA on oxidative stress-induced apoptosis in 15-LOX-1 cells. Shown here is the comparison of neuroprotection in a 15-LOX-1-deficient cell line under oxidative stress with 32:6 and 34:6 VLC-PUFA along with NPD1. 32:6 and 34:6 VLC-PUFA were able to induce neuroprotection (45% and 40% respectively), as compared to oxidative stress (90%) under this condition. (C) Concentration dependent cytoprotection by C32:6 and C34:6 VLC-PUFA in oxidative-stress induced ARPE-19 cells. A concentration (50-500 nM) kinetic of cytoprotection induced by VLC-PUFA 32:6 and 34:6 in RPE cell culture under OS was shown here. […] We decided to use 250 nM concentrations of 32:6 and 34:6 VLC-PUFA in subsequent experiments. (D) Selected images of alive and dead cells from this study (control, OS, treatment with C32:6).

Bcl2 = Bcl2 protein in RPE (LOX-D / ARPE-19) cells under oxidative stress; format: cell-based, human
From the text: FIG. 9. (A) VLC-PUFA and elovanoids ELV1 and ELV2 mediated effect on Bcl2 upregulation in ARPE-19 cells under stress. In this experiment we tested the effect of elovanoid precursors on Bcl2 upregulation along with VLC-PUFA in stressed RPE. (B) Quantification of Bcl2 upregulation by NPD1, ELV1 and ELV2 in LOX-D cells. Bcl2 is an important antiapoptotic protein of the Bcl2 family protein.
FIG. 9—(A) VLC-PUFA and elovanoids ELV1 and ELV2 mediated effect on Bcl2 upregulation in ARPE-19 cells under stress. In this experiment we tested the effect of elovaniod precursors on Blc2 upregulation along with VLC-PUFA in stressed RPE. (B) Quantification of Bcl2 upregulation by NPD1, ELV1 and ELV2 in LOX-D cells. Bcl2 is an important antiapoptotic protein of the Bcl2 family protein.

Bim = Bim protein in ARPE-19 cells under oxidative stress; format: cell-based, human; conditions: ARPE-19 cells under stress
From the text: FIG. 7. (A) VLC-PUFA and ELV1 and ELV2 compounds mediated downregulation of Bim in ARPE-19 cells under stress. Bim, another class of Bcl2 family, has been tested like Bid in this figure to confirm our previous results. VLC-PUFA and elovanoids protected against the upregulation of Bim by OS, similar to Bid, in RPE cells under stress. (B) VLC-PUFA and elovanoids mediated effect on Bim downregulation in ARPE-19 cells under stress.
FIG. 7—A) VLC-PUFA and ELV1 and ELV2 compounds mediated […] of Bim in ARPE-19 cells under stress. Bim, another class of Bcl2 family, has been tested like Bid in this figure to confirm our previous results. VLC-PUFA and elovanoids protected the upregulation of Bim by OS, similar to Bid, in RPE cells under stress. (B) VLC-PUFA and elovanoids mediated effect on Bim upregulation in ARPE-19 cells under stress.

Bcl-xL = Bcl-xL protein in ARPE-19 cells under oxidative stress; format: cell-based, human; conditions: ARPE-19 cells under OS
Protocol: (§3) FIG. 8. (A) Bcl-xL-upregulation by elovanoids ELV1 and ELV2 in ARPE-19 cells under stress. Bcl-xL is the antiapoptotic Bcl2 family protein. Like proapoptotic proteins Bid and Bim, the effect of elovaniod precursors on the antiapoptotic protein Bcl-xL was tested in this figure in RPE cells under OS. […] (B) Effect of NPD1, ELV1 and ELV2 on Bax expression in LOX-D cells under stress. Proapoptotic Bax was tested in this figure. […] C) VLC-PUFA and elovanoids ELV1 and ELV2 mediated effect on Bax upregulation in ARPE-19 cells under stress. In this experiment, elovanoid precursors along with VLC-PUFA were tested on the downregulation of the Bax protein in RPE cells under stress.
as §3, with “8—(A)” for “8. (A)”

Bax = Bax expression in LOX-D RPE cells under oxidative stress; format: cell-based, human
Protocol: as §3
as §3, with “8—(A)” for “8. (A)”

Bid = Bid protein by western blot in ARPE-19 cells under oxidative stress; format: cell-based, human
From the text: FIG. 6. (A) VLC-PUFA and elovanoids ELV1 and ELV2 mediated effect on Bid upregulation in ARPE-19 cells under stress. […] (B) VLC-PUFA and ELV1 and ELV2 compounds mediated upregulation of Bid in ARPE-19 cells under stress.
FIG. 6—(A) VLC-PUFA and elovanoids ELV1 and ELV2 mediated effect on Bid upregulation in ARPE-19 cells under stress. […] (B) VLC-PUFA and ELV1 and ELV2 compounds mediated upregulation of Bid in ARPE-19 cells under stress.

SMILES	neuroprotection (FIG. 5B) ([1]; 15-LOX-1-deficient cell line under oxidative stress, compared to oxidative stress (90%))	protection against cell death under oxidative stress conditions (FIG. 4B) ([1]; 15-LOX-D1 cells under oxidative stress)	effect on SIRT1 abundance (FIG. 10) (SIRT1)	concentration dependent cytoprotection (FIG. 5C) (ARPE-19 cells; 250 nM)	concentration dependent cytoprotection (FIG. 5C) (ARPE-19 cells; 500 nM)	protection against OS in RPE cells (summary, FIGS. 4-10) (ARPE-19 cells; RPE cells)	concentration dependent cytoprotection (FIG. 5C) (ARPE-19 cells; starting from 50 nM)	neuroprotection (FIG. 5A) (ARPE-19 cells; stressed ARPE-19 cells treated with 5 μm of 15-LOX-D1 inhibitor PD146176)	activity against OS relative to the related VLC-PUFA (FIG. 4) ([1]; as sodium salts or methyl esters)	effect on Bcl2 protein (FIG. 9) (Bcl2)	effect on Bim upregulation by OS (FIG. 7) (Bim)	effect on antiapoptotic Bcl-xL protein (FIG. 8A) (Bcl-xL)	effect on Bax upregulation by OS (FIG. 8B) (Bax)	effect on Bid protein upregulated by OS (FIG. 6) (Bid)
CC/C=C\C/C=C\C/C=C\C/C=C\C/C=C\C/C=C\CCCCCCCCCCCCC(=O)O [C32:6]	45%	protect against cell death	mediate the upregulation of SIRT1	very good intermediate effect	maximum effect	protective against OS	gradual decrease of cell deaths	55%						
CC/C=C\C[C@H](O)\C=C/C=C/C=C/[C@H](O)C/C=C\C/C=C\CCCCCCCCCCCCC(=O)O [ELV1, (14Z,17Z,20R,21E,23E,25Z,27S,29Z)-20,27-dihydroxydotriaconta-14,17,21,23,25,29-hexaenoic acid]									more potent activity against OS than the related VLC-PUFA	potent upregulation	potent downregulation	potent upregulation	potent downregulation	potent downregulation
